Measurements published in PMC6628362, “A New Strategy for Glioblastoma Treatment: In Vitro and In Vivo Preclinical Characterization of Si306, a Pyrazolo[3,4-d]Pyrimidine Dual Src/P-Glycoprotein Inhibitor” (Cancers, 2019).
Several values for one entry are separate records, joined by “and”; a condition that tells them apart may be missing. Identical values can stand only once. Marks after values point to notes of the source that are not given here.

Assays:
U87 = assay: MTT cell growth inhibition, U87; type: cell-based, Human; conditions: 72 h, n = 3
Experimental: (§1) Human GBM cell lines U87 and LN-229 were purchased from the American Type Culture Collection, Rockville, MD, USA. U87-TxR cells were selected from U87 cells by continuous exposure to increasing concentrations of PTX [76]. LN-299, U87 and U87-TxR cells were grown in Minimum Essential Medium with 10% fetal bovine serum, 2 mM L-glutamine and 5000 U/mL penicillin, 5 mg/mL streptomycin solution. Cell lines were maintained at 37 °C in a humidified 5% CO2 atmosphere. They were sub-cultured at 72 h intervals using 0.25% trypsin/EDTA and 16,000 cells/cm^2 were seeded into a fresh medium.
(§2) MTT assay was used to assess the viability of U87 and U87-TxR cells (AppliChem GmbH, Taufkirchen, Germany). After reaching the confluence in 25 cm^2 tissue flasks, U87 and U87-TxR cells were trypsinized. Cells were seeded at the optimal density determined in initial experiments: 4000 cell/well into flat-bottomed 96-well tissue culture plates. Following the overnight incubation, cells were treated with Si306, pro-Si306 and dasatinib (1–25 µM) for 72 h. In addition, the combined effects of Si306 and pro-Si306 with PTX were evaluated in MDR GBM cells. To that end, two concentrations of Si306 and pro-Si306 (0.2 μM and 0.5 μM) were combined with increasing concentrations of PTX (0.1–2 μM) in simultaneous treatment. The sensitization of U87-TxR cells to PTX was studied after 72 h. Briefly, MTT was added to each well in a final concentration of 0.2 mg/mL for 4 h to induce the formation of the formazan in cells with intact/viable mitochondria. Then, produced formazan was dissolved in DMSO, and the absorbance was measured at 540 nm on a microplate reader (LKB 5060-006 Micro Plate Reader, Vienna, Austria). IC50 values were calculated by nonlinear regression analysis using GraphPad Prism 6.0 for Windows (GraphPad Software, La Jolla, CA, USA).

P-gp [1] = biological target: P-gp (Homo sapiens, UniProt P08183); assay: Rho 123 accumulation assay (P-gp inhibition) in U87-TxR cells; conditions: 30 min; for P-gp activity (Rho 123 intracellular accumulation): 5 µM; for IC50: IC50 of P-gp inhibition, Rho 123 accumulation
Chain of P-gp (Homo sapiens, UniProt P08183) (P08183 whole entry): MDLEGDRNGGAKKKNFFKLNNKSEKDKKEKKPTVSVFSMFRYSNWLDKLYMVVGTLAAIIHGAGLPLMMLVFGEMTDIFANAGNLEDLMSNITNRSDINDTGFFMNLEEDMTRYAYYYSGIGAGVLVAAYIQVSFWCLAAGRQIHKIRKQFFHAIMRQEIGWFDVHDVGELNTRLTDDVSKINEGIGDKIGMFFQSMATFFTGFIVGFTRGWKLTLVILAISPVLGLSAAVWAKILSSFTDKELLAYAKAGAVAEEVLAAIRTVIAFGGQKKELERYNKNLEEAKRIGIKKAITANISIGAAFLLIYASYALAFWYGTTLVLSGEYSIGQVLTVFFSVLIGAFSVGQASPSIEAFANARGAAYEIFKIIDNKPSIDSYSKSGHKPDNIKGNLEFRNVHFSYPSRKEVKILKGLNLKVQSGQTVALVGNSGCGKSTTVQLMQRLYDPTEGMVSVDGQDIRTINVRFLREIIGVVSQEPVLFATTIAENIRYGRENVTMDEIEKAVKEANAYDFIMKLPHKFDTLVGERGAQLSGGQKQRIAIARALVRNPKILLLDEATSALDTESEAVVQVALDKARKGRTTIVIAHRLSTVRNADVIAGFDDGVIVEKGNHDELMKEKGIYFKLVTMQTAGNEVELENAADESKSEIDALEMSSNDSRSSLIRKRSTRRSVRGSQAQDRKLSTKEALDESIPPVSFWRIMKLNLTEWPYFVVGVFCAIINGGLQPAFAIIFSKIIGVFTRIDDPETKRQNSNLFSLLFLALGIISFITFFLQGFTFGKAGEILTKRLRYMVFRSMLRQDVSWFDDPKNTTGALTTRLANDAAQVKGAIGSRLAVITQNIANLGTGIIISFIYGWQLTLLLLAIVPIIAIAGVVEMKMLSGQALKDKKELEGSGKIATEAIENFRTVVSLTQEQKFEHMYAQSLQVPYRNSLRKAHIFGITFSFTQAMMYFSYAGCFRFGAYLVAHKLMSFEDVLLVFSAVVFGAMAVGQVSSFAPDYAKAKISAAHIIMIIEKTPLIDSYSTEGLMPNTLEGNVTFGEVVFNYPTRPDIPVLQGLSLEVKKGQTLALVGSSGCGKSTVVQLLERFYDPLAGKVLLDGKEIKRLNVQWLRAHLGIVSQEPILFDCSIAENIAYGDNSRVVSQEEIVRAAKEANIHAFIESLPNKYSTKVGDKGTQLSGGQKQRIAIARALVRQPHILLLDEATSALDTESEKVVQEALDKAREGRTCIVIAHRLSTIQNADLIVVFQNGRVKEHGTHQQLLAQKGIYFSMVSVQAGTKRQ
Experimental: At the end of the accumulation period, the cells were pelleted by centrifugation, washed with PBS and placed in cold PBS. The samples were kept on ice in a dark setting until the analysis on CyFlow Space Partec flow-cytometer (Sysmex Partec GmbH, Germany). […] A minimum of 10,000 events was assayed for each sample and the obtained results were analyzed using Summit Dako Software (ver. 4.3, Fort Collins, CO, USA).

U87-TxR = assay: MTT cell growth inhibition, MDR U87-TxR; type: cell-based, Human; conditions: 72 h, n = 3
Experimental: as §1, §2

LN-229 = assay: MTT cell growth inhibition, LN-229; type: cell-based, Human; conditions: LN-229, MTT, n = 3
[2] = set-up: method as in PMID 17429625; conditions: mice; cited from earlier work
MCF-7/Adr [3] = test system: MCF-7/Adr; set-up: method as in PMID 25482933; conditions: read-out: IC50 cell growth; cited from earlier work
MCF-7/Adr [4] = test system: MCF-7/Adr; set-up: method as in PMID 25482933; conditions: 0.5 μM dasatinib, 72 h; cited from earlier work
P-gp [5] = assay: Flow-cytometric analysis of P-glycoprotein expression in U87-TxR cells; type: cell-based, Human; conditions: 5 µM, 72 h, flow cytometry
Experimental: To assess the P-glycoprotein expression level in MDR GBM cells, flow-cytometry was employed. U87-TxR cells seeded in adherent 6-well plates were treated with 5 µM Si306, pro-Si306 or dasatinib for 72 h. Then, cells were collected by trypsinization, washed in PBS, and then directly immuno-stained by FITC-conjugated anti-P-gp antibody (BD Biosciences, Winnersh, Berkshire, UK). To discriminate the level of background fluorescence, an isotype control IgG2bκ (Abcam, Cambridge, United Kingdom) was used. The fluorescence of FITC-conjugated anti-P-gp was analyzed on assessed on the fluorescence channel 1 (FL1) of the CyFlow Space Partec flow-cytometer (Sysmex Partec GmbH, Görlitz, Germany). After gating to exclude the cell debris and dead cells, a minimum of 10,000 cells per sample was assayed. Summit Dako Software was used for the analyses of results obtained by flow-cytometry.

U87-TxR cells = assay: Reversal of paclitaxel resistance, MTT combination treatment; type: cell-based, Human; conditions: 72 h
Experimental: as §2

[6] = set-up: method as in PMID 28650650; conditions: pro-Si306 administrated p.o.; cited from earlier work
BT-138 = assay: Cell viability, BT-138 (Table S1); type: cell-based; conditions: BT-138, 24 h
Experimental: 1. Cell Growth Inhibition by Dasatinib, Si306 and Pro-Si306
GB cell lines BT138, T98G and A172 were treated with Si306 and pro-Si306 at concentrations ranging from 1 to 100 µM, or with DMSO as a control. Cell viability was evaluated 72 h after treatment for T98G and A172 cell lines and after 24 h for BT-138. In table S1 the IC50 values are reported.
Table S1. Sensitivity of glioblastoma multiforme (GBM) cells to Si306 and pro-Si306 expressed as IC50 […]
Figure S1. Rho 123 accumulation in U87-TxR cells treated with increasing concentrations of TQ (A), Dex-VER (B), Si306 (C) and pro-Si306 (D).
(1 picture or pasted object on this page, not shown here)

[7] = biological target: Human Serum Albumin (HSA) (Homo sapiens, UniProt P02768); assay: Binding fluorimetric assay, HSA; type: in vitro ADME; conditions: 10 µM HSA, fluorescence quenching
Chain of Human Serum Albumin (HSA) (P02768 25-609): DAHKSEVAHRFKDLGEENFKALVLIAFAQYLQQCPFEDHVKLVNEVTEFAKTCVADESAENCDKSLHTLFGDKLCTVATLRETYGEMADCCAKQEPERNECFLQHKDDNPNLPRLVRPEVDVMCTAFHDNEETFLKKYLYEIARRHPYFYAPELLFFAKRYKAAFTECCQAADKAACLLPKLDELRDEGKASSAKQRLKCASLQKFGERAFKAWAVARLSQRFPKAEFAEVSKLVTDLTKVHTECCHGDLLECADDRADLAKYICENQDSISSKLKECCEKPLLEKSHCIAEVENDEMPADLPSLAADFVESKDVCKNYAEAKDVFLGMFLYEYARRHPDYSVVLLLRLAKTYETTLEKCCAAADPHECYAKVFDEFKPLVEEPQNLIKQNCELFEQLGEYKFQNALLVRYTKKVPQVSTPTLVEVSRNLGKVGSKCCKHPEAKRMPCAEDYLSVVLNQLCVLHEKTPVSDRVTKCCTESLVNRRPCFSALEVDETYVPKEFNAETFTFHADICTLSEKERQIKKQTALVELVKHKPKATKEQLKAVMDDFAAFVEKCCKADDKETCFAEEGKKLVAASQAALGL
Experimental: (§3) In order to determine the binding affinity for Si306 and pro-Si306 to HSA (human serum albumin) and AGP (alpha-1-acid glycoprotein), the protein fluorescence has been monitored by spectroscopy. The quantitative analysis was performed using black 96 multiwell plates: in each well, a fixed concentration of HSA or AGP (10 µM in phosphate buffer 1 mM) was added with different amounts of the tested compound (0.1 µM to 500 µM). Plates were gently shacked and after 30 min at room temperature for equilibration, spectra were recorded from 300 to 400 nm, after excitation at 295 nm, by using a Perkin Elmer EnVision Multilabel Reader 2014 spectrofluorimeter. Finally, spectra were acquired with EnVision Manager ver.1.13 software (Walthman, MA, USA). The obtained non fluorescence quenching percentages were plotted against drug concentrations and the relative KD values were calculated using GraphPad software (version 6.0).

[8] = set-up: method as in PMID 28650650; conditions: cited from earlier work
[9] = test system: Alpha-1-acid glycoprotein (AGP); assay: Binding fluorimetric assay, AGP; type: in vitro ADME; conditions: 10 µM AGP, fluorescence quenching
Experimental: as §3

CYP3A4 = biological target: T1, CYP3A4 (Homo sapiens, UniProt P08684); assay: CYP3A4 inhibition in human liver microsomes (testosterone 6β-hydroxylation); type: in vitro ADME
T1 construct: Incubations were carried out in a mix containing human liver microsomes (1 mg/mL of protein); from tissue; host or cells: human liver microsomes
T1 sequence (P08684 whole entry): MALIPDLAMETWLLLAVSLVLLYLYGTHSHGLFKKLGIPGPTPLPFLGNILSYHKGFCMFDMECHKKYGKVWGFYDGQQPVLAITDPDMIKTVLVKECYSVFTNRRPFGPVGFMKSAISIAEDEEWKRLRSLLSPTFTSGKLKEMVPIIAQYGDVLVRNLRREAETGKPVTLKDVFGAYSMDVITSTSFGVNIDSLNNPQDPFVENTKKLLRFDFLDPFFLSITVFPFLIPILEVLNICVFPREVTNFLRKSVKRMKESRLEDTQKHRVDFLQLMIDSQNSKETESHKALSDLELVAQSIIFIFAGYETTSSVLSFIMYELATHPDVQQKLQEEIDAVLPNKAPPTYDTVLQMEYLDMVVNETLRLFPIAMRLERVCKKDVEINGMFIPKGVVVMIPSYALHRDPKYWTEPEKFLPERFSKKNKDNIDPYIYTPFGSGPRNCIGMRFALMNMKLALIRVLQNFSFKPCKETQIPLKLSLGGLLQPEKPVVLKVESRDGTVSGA
Experimental: The inhibition of cytochrome P450 3A4 isoform by Si306 and pro-Si306 was measured by determining its activity on the substrate testosterone.
The activity of CYP3A4 was evaluated by measuring the 6β-hydroxylated testosterone formation (CYP3A4-specific reaction). The amount of 6β-hydroxylated metabolite was assessed in the absence and presence of Si306, pro-Si306 and ketoconazole (testosterone concentration of 100 μM in phosphate buffer 0.025 M, pH 7.4). […] Ketoconazole was used as standard selective inhibitor of CYP3A4 isoenzyme. Incubations were carried out in a mix containing human liver microsomes (1 mg/mL of protein) in phosphate buffer 0.025 M, pH 7.4, NADPH (200 μM) previously solubilized in a MgCl2 48 mM solution. The final incubation volume was 0.25 mL. After a 40 min-incubation period at 37 °C, the reaction was stopped by adding 1 mL of acetonitrile in the presence of corticosterone 2 μM as internal standard. The samples were centrifuged for 20 min at 5000 rpm. Concentrations of testosterone and its metabolite 6β-hydroxytestosterone were assessed by the HPLC method with UV detection. Calibration curve for quantitative analysis of 6β-hydroxytestosterone in the samples was obtained using commercial 6β-hydroxytestosterone purchased from Sigma Aldrich. For the statistical analysis, GraphPad InStat 3.0 (GraphPad Software, San Diego, CA, USA) was used.

Which results are given for `Cc1nc(Nc2ncc(C(=O)Nc3c(C)cccc3Cl)s2)cc(N2CCN(CCO)CC2)n1` [Dasatinib, dasatinib, reference compound]?
IC50 (U87): 6.14 ± 0.464 µM; IC50 (U87; Homo sapiens, U-87 MG): 6.1 µM; P-gp activity (Rho 123 intracellular accumulation) (P-gp [1]): did not show a similar activity; IC50 (U87-TxR): 8.52 ± 0.691 µM; IC50 (U87-TxR; Homo sapiens, U87-TxR): 8.5 µM; IC50 (LN-229; Homo sapiens, LN-229, 72 h): 24.7 µM; IC50 (LN-229; 72 h): 24.7 ± 1.03 µM; oral bioavailability [2]: 14%; IC50 (MCF-7/Adr [3]): 40 µM; reversal of doxorubicin resistance (MCF-7/Adr [4]): 3.35 fold; P-gp expression (P-gp [5]): increased P-gp expression

Which IC50 (U87-TxR cells; Homo sapiens, PTX alone, read-out: IC50 ± S.D. for PXT) does the source give for `CC(=O)O[C@H]1C(=O)[C@@]2(C)[C@H]([C@H](OC(=O)c3ccccc3)[C@]3(O)C[C@H](OC(=O)[C@H](O)[C@@H](NC(=O)c4ccccc4)c4ccccc4)C(C)=C1C3(C)C)[C@]1(OC(C)=O)CO[C@@H]1C[C@@H]2O` [PTX, paclitaxel, reference compound] here?
The IC50 was 2.84 ± 0.358 µM.

For `COc1cc2c(cc1OC)CN(CCc1ccc(NC(=O)c3cc(OC)c(OC)cc3NC(=O)c3cnc4ccccc4c3)cc1)CC2` [TQ, tariquidar, reference compound], which IC50 (P-gp [1]; TQ values in nM (footnote a)) is on record?
Its IC50 is under 1 nM.

With `CN1CCN(CCOC(=O)N(c2cccc(Br)c2)c2nc(SCCN3CCOCC3)nc3c2cnn3CC(Cl)c2ccccc2)CC1` (stereo not shown) [pro-Si306] as the compound, how does the “detection in plasma and brain” value [6] read?
Its value is “detected neither into the plasma nor in the brain”.

What about the IC50 (U87) of the same compound?
The IC50 was 3.04 ± 0.343 µM.

What about the IC50 (U87; Homo sapiens, U-87 MG) of the same compound?
The IC50 was about 3 µM.

And the IC50 (BT-138)?
Its IC50 is 30.7 ± 4.75 µM.

And the “P-gp activity (Rho 123 intracellular accumulation)” value (P-gp [1])?
The value was “significant suppression of P-gp activity”.

And the IC50 (P-gp [1])?
The IC50 was 3800 nM and 3750 nM.

And the BMAX [7]?
The BMAX was 78.00 ± 4.2.

What about the Kd [7] of the same compound?
The Kd was 21.4 ± 4.5 µM.

What about the IC50 (U87-TxR; Homo sapiens, U87-TxR) of the same compound?
Its IC50 is 3.42 ± 0.359 µM.

And the solubility [8]?
Its solubility is “enhanced solubility”.

What about the BMAX [9] of the same compound?
The BMAX was 96.69 ± 1.5.

What about the Kd at 30 min ([9]; alpha-1-acid glycoprotein (10 µM) in phosphate buffer) of the same compound?
Its Kd at 30 min is 9.28 ± 0.7 µM.

What about the IC50 (LN-229; Homo sapiens, LN-229, 72 h) of the same compound?
The IC50 was 3.07 ± 0.272 µM.

And the inhibition at 40 min (CYP3A4; pH 7.4, probe testosterone 100 μM (6β-hydroxylation), at a lower concentration (1–50 μM range))?
The inhibition at 40 min was -15%.

What about the “interaction with CYP3A4” value (CYP3A4; up to 50 μM) of the same compound?
The value was “do not interact with CYP3A4”.

What about the “Relative Reversal of PTX resistance” value (U87-TxR cells; 0.2 µM of the compound) of the same compound?
The value was 4.47 ***.

And the “Relative Reversal of PTX resistance” value (U87-TxR cells; 0.5 µM of the compound)?
The value was 7.98.

And the “Relative Reversal of PTX resistance” value (U87-TxR cells; 0.5 µM of the compound, listed as Pro-Si306)?
Its value is 7.98 ***.
